How the values were obtained:
E. coli cells = assay: Lysis of suspended bacterial cells by lysis buffers with 0.1 to 1% SDS; format: cell-based; details: lysis buffer with 1% OT-100, 0.2M NaOH
Procedure: 0.25 grams of pelleted E. coli cells (the cells contained an 8.165 kB plasmid called VR1412) were suspended in the suspension buffer from a Concert Plasmid DNA Purification Kit (Life Technologies, Inc., Bethesda, Md.). In place of the lysis buffer provided in the Concert Plasmid DNA Purification Kit (i.e., 1% SDS in 200 mM NaOH), a series of ten different lysis buffers were evaluated. Each lysis buffer included 1% OT-100 (a hydrophobic surfactant), 0.2M NaOH and from 0.1 to 1% SDS. The lysis buffers were used to lyse the suspended bacterial cells, and the lysed suspension was then neutralized with the neutralization buffer provided in the Concert Plasmid DNA Purification Kit. The resulting plasmid DNA preparation was precipitated by the addition of isopropanol (IPA) followed by centrifugation.
The best result was obtained with 1% OT-100 and 0.4% SDS, that combined a relatively low endotoxin (LAL) level and a high plasmid concentration.

[1] = bracketed value; cited from earlier work
[2] = in water; cited from earlier work

CCCCCCCCCCCCOS(=O)(=O)[O-].[Na+] [SDS, Sodium dodecyl sulfate]
minimum concentration of SDS required to achieve most effective bacterial lysis (E. coli cells): 0.4%

Triton ® X-100
Dynamic Surface Tension [6 bubbles/sec] [1]: — (42.2) dynes/cm

CCCCCCCCCCCCCOC(=O)CC(C(=O)OCCCCCCCCCCCCC)S(=O)(=O)O.[Na] (stereo not drawn) [TR-70, sodium bistridecyl sulfosuccinate]
Solubility [2]: 0.15%
